The inhibition is how much of the control response was suppressed. Lower therefore signals little suppression.

Experimental findings from publication PMC4844176 (Xenobiotica; the fate of foreign compounds in biological …, 2015) are described below.

The target of data set [1] is T1, UGT1A10 (Homo sapiens, UniProt Q9HAW8).
T1 sequence (Q9HAW8 26-530): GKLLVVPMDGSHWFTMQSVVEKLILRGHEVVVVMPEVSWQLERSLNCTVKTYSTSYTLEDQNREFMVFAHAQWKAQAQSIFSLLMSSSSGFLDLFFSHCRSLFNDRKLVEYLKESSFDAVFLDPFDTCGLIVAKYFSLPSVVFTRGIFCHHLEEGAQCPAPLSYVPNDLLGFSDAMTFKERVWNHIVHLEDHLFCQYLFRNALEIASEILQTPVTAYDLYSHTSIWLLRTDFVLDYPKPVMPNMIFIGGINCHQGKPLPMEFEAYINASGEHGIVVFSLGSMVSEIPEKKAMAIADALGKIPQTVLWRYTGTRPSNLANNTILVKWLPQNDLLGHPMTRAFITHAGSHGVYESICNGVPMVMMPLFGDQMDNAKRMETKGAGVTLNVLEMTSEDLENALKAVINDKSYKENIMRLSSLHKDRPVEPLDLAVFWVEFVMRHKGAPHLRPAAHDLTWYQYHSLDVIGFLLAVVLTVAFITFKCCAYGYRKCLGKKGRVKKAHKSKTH
Nature of the data set: Screening for aprepitant glucuronidation, UGT1A10 Supersomes. In kind it is in vitro ADME. To be noted: UGT1A10, 5 and 250 µM aprepitant.

The target in data set [2] is T2, UGT2B7 (Homo sapiens, UniProt P16662).
T2 sequence (P16662 24-529): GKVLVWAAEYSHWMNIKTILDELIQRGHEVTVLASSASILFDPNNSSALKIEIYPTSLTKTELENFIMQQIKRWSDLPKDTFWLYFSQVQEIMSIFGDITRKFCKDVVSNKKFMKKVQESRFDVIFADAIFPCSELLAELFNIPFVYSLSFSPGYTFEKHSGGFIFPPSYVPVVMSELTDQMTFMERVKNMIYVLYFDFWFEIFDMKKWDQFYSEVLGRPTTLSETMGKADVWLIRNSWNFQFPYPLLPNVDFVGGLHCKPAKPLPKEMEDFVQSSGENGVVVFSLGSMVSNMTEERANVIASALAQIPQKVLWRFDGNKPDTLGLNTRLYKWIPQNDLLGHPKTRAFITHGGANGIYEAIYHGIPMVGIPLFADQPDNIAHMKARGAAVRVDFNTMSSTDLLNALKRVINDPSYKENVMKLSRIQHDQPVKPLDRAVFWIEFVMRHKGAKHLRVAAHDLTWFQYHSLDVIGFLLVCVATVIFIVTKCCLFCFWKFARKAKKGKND
Nature of the data set: Screening for aprepitant glucuronidation, UGT2B7 Supersomes. In kind it is in vitro ADME. To be noted: UGT2B7, 5 and 250 µM aprepitant.

The target in data set [3] is T3, UGT2B10 (Homo sapiens, UniProt P36537).
T3 sequence (P36537 24-528): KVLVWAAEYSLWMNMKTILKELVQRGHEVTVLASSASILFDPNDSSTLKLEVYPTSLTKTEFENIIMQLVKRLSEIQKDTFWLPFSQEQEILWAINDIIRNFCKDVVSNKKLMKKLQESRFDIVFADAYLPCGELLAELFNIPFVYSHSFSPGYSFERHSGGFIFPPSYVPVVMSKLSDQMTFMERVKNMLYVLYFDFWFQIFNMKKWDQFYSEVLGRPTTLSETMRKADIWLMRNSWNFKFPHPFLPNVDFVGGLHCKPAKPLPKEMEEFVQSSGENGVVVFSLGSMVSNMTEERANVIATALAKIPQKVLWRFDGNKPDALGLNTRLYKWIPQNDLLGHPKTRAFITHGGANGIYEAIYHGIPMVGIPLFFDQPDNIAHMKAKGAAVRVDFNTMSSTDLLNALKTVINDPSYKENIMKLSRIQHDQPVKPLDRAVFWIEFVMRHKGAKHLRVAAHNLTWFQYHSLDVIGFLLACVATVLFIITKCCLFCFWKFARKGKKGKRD
Nature of the data set: Screening for aprepitant glucuronidation, UGT2B10 Supersomes. The data set is classed as in vitro ADME. To be noted: UGT2B10, 5 and 250 µM aprepitant.

Data set [4] deals with T4, UGT1A7 (Homo sapiens, UniProt Q9HAW7).
T4 sequence (Q9HAW7 26-530): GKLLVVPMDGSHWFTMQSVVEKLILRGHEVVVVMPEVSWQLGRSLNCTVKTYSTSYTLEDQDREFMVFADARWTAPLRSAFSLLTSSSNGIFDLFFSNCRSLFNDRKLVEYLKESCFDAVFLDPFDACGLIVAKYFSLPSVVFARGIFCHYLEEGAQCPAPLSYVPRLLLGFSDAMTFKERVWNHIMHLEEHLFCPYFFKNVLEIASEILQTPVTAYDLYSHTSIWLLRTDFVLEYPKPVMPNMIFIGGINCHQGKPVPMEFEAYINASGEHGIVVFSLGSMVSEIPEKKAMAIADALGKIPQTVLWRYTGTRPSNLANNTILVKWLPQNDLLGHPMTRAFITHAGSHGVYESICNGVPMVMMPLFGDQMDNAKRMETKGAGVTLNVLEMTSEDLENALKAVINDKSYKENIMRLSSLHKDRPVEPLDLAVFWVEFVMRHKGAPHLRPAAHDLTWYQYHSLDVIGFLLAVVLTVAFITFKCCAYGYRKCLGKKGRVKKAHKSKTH
The data set is described as follows: Inhibition by aprepitant of UGT1A7. The data set is classed as in vitro ADME. The conditions noted are these: UGT1A7 enzyme, pH 7.5, probe 4-MU.

For data set [5], the target named is T5, UGT1A3 (Homo sapiens, UniProt P35503).
T5 sequence (P35503 29-534): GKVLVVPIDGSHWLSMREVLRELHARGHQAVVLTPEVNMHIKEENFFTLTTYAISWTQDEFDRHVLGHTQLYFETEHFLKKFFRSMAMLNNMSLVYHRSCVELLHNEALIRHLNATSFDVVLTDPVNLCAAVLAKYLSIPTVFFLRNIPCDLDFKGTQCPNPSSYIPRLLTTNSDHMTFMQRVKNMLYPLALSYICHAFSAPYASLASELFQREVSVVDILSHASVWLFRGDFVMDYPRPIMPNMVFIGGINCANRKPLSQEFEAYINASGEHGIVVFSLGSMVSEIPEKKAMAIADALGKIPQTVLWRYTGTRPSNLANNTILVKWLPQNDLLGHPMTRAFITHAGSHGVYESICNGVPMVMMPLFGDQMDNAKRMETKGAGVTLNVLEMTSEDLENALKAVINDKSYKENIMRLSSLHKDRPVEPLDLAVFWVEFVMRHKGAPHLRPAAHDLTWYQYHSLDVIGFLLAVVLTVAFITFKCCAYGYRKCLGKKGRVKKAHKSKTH
The conditions noted are these: pH 7.5; for velocity of AP-G formation: 60 min.

The subject of data set [6] is human intestinal microsomes (HIM).

Read-outs that look alike come from different tables or passages of the source.

As to `C[C@@H](O[C@H]1OCCN(Cc2n[nH]c(=O)[nH]2)[C@H]1c1ccc(F)cc1)c1cc(C(F)(F)F)cc(C(F)(F)F)c1` [aprepitant, Aprepitant], the AP-G formation result in data set [1], in data set [2] and in data set [3] was “not detected” throughout. In data set [4], this compound gave an inhibition at 10 µM of 17%. The “velocity of AP-G formation” value in data set [5] (5 µM) is given as 44.1 ± 0.7 fmol/min/mg protein; in data set [5] (250 µM), 717.3 ± 18.6 fmol/min/mg protein; in data set [6] (human, 60 min, 250 µM, pH 7.5) it was 278.3 ± 1.9 fmol/min/mg protein. Besides, the CLint in data set [5] (recombinant enzyme) turned out to be 15 µl/min/µg protein. Moreover, the Vmax in data set [6] (HIM, mean ± SE) was 352 ± 8 fmol/min/mg protein.
